Results published in patent US8759481B2, “Peptide vaccines for cancers expressing tumor-associated antigens” (Oncotherapy Science, Inc., priority 2007, dated 2014).
Entries after “also recorded” stand apart in the source; their conditions may differ. Ends that are not written are not given here.

Experiments:
Type in all cases: cell-based, human
[1] = system: peptide-pulsed A24-LCL cells; assay: CTL line establishment, IFN-gamma ELISA; settings: HLA-A24 peptides; vs target without peptide pulse
Summary of the method: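 CTL lines were expanded with MMC-inactivated B-lymphoblastoid feeders, 40 ng/ml anti-CD3 and IL-2 in AIM-V/5% AS. IFN-gamma ELISPOT identified specific wells, and ELISA determined established lines, using responders stimulated by peptide-pulsed A24-LCL or T2 cells at 1×10^4/well.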

[2] = system: peptide-pulsed A24-LCL cells; assay: CTL clones by limiting dilution, specific CTL activity; settings: HLA-A24 peptides; vs target without peptide pulse
Description: (§1) The dilutions were made to have 0.3, 1, and 3 CTLs/well in 96 round-bottomed micro titer plate (Nalge Nunc International). CTLs were cultured with 7×10^4 cells/well of 2 kinds of human B-lymphoblastoid cell lines, 30 ng/ml of anti-CD3 antibody, and 125 U/ml of IL-2 in total of 150 micro 1/well of AIM-V containing 5% AS. 50 micro 1/well of IL-2 was added to the medium 10 days later so that IL-2 became 125 U/ml in the final concentration. CTL activity of CTLs was tested on the 14th day, and CTL clones were expanded using the same method above.
(§2) Briefly, peptide-pulsed A24-LCL or T2 cell (1×10^4/well) was prepared as stimulator cells. Cultured Cells in 48 wells or CTL clones after limiting dilution were used as responder cells. IFN-gamma ELISPOT assay and ELISA assay were performed under manufacture procedure.

[3] = system: peptide-pulsed A24-LCL cells; assay: IFN-gamma ELISPOT assay (positive wells); settings: HLA-A24 peptides; as compared to the control
Summary of the method: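 PBMC-derived DCs from HLA-A*2402 and/or A*0201 donors, pulsed with 20 micro g/ml peptide plus 3 micro g/ml beta 2-microglobulin, stimulated autologous CD8+ T cells three times (days 0, 7, 14). On day 21, responders were tested against peptide-pulsed A24-LCL or T2 cells by IFN-gamma ELISPOT. Values are reported as positive wells/wells tested; CTL lines confirmed by ELISA.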

[4] = system: COS7 transfected with full length CDH3 gene and HLA-A*2402; assay: Specific CTL activity against transfected target cells; settings: CTL clones raised by the peptide; vs single transfectants; listed as CDH3-A24-10-807
Description: as §2
(§3) The cDNA encoding an open reading frame of target genes or HLA-A02 or HLA-A24 was amplified by PCR. The PCR-amplified product was cloned into pcDNA3.1 myc-His vector (Invitrogen). The plasmids were transfected into the target cells, HLA-A02 and HLA-A24-null normal human cell line COS7 or 293T using lipofectamine (Invitrogen) according to the manufacturer's recommended procedures. Alternatively, the plasmid contained the target genes were transfected into A24-LCL by electroporation using GenePulserII (Biorad). Briefly, 2.5×10^6 A24-LCL cells were pulsed with 10 mcg prasmid at 140V and 1000 micro F. After 2 days from transfection, the transfected cells were treated with Cell dissociation solution and used as the target cells for CTL activity assay.
The established CTL line raised against these peptides were examined for their ability to recognize the target cells expressing CDH3 and HLA-A*2402. […] COS7 transfected with full length CDH3 but not HLA-A*2402 and COS7 transfected with HLA-A*2402 but not full length CDH3 were prepared as controls.

[5] = system: 293T transfected with full length INHBB gene and HLA-A*2402; assay: as above; settings: CTL line or clone raised by the peptide, vs control transfectants
Description: as §2, §3
The established CTL line raised against these peptides were examined for their ability to recognize the target cells expressing INHBB and HLA-A*2402.

[6] = system: peptide-pulsed T2 cells; assay: CTL clones by limiting dilution, specific CTL activity; settings: HLA-A02 peptides; vs target without peptide pulse
Description: as §1, §2

[7] = system: COS7 transfected with full length TTK gene and HLA-A*0201; assay: Specific CTL activity against transfected target cells; settings: vs control transfectants
Description: as §2, §3
The established CTL clone raised against these peptides were examined for their ability to recognize the target cells endogenously expressing TTK and HLA-A*0201. […] COS7 transfected with full length TTK but HLA-A*0201, COS7 transfected HLA-A*0201 but not full length of TTK (or replaced full length HIG2 gene) and COS7 transfected with HLA-A*0201 and pulsed with different target epitope peptide, were prepared as controls.

[8] = system: peptide-pulsed T2 cells; assay: CTL line establishment, IFN-gamma ELISA; settings: HLA-A02 peptides; vs target without peptide pulse
Description: CTLs were expanded in culture using the method similar to that described by Riddell S R, et al., (Walter E A et al., (1995) N Engl J Med 333:1038-44; Riddel S R, et al., (1996) Nature Med. 2:216-23.). A total 5×10^4 of CTLs were resuspended in 25 ml of AIM-V/5% AS with 2 kinds of human B-lymphoblastoid cell lines, inactivated by MMC, in the presence of 40 ng/ml of anti-CD3 monoclonal antibody (Pharmingen). One day after initiating the cultures, 120 IU/ml of IL-2 were added to the cultures. The cultures were fed with fresh AIM-V/5% AS containing 30 IU/ml of IL-2 on days 5, 8 and 11.
as §2
Positive well number indicates the number of wells where specific IFN-gamma production can be detected by IFN-gamma ELISPOT assay. 4 to 8 wells can be prepared from one donor. This is shown as (positive wells number/the number of whole wells tested by IFN-gamma ELISPOT assay). Positive CTL line indicates the number of CTL line established from positive wells. The generation of CTL line is determined by ELISA. This is shown as (established CTL line number/the number of positive wells tested by IFN-gamma ELISPOT assay). No positive donor is not defined by no detectable positive wells, but by no established CTL line. […] No data at positive donor number, positive well number and positive CTL line indicating “−” means that the peptides can't be synthesized for any reason.
CTLs were expanded in culture using the method similar to the one described by Riddell et al. (Walter E A et al., N Engl J Med 1995 Oct. 19, 333(16): 1038-44; Riddell S R et al., Nat Med 1996 Feb., 2(2): 216-23). A total of 5×10^4 CTLs were suspended in 25 ml of AIM-V/5% AS medium with 2 kinds of human B-lymphoblastoid cell lines, inactivated by MMC, in the presence of 40 ng/ml of anti-CD3 monoclonal antibody (Pharmingen). One day after initiating the cultures, 120 IU/ml of IL-2 were added to the cultures. The cultures were fed with fresh AIM-V/5% AS medium containing 30 IU/ml of IL-2 on days 5, 8 and 11 (Tanaka H et al., Br J Cancer 2001 Jan. 5, 84(1): 94-9; Umano Y et al., Br J Cancer 2001 Apr. 20, 84(8): 1052-7; Uchida N et al., Clin Cancer Res 2004 Dec. 15, 10(24): 8577-86; Suda T et al., Cancer Sci 2006 May, 97(5): 411-9; Watanabe T et al., Cancer Sci 2005 August, 96(8): 498-506).
Specifically, peptide-pulsed T2 (1×10^4/well) was prepared as stimulator cells. Cultured cells in 48 wells were used as responder cells. IFN-gamma ELISPOT assay and IFN-gamma ELISA assay were performed under manufacture procedure.

[9] = system: peptide-pulsed T2 cells; assay: IFN-gamma ELISPOT assay (positive wells); settings: HLA-A02 peptides; as compared to the control
Summary of the method: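 CD8+ T cells from HLA-A*2402 and/or HLA-A*0201 donors were stimulated 1:20 with autologous monocyte-derived DCs pulsed with 20 µg/ml peptide plus β2-microglobulin, in IL-7, with IL-2 added, restimulated on days 7 and 14. On day 21, IFN-γ ELISPOT against peptide-pulsed T2 or A24-LCL cells (1×10^4/well) scored wells as positive, with CTL lines confirmed by ELISA.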

Row | Substance | Establishment of CTL line, specific CTL activity against the peptide-pulsed target determined by ELISA [1] | CTL activities of CTL clones against the peptide-pulsed target [2] | IFN-gamma production by IFN-gamma ELISPOT assay [3] | CTL activities of CTL clones against the peptide-pulsed target [6] | Establishment of CTL line, specific CTL activity against the peptide-pulsed target determined by ELISA [8] | IFN-gamma production by IFN-gamma ELISPOT assay [9] | also measured
1 | DYLNeWGSRF (DYLNEWGSRF; not fully specified; printed as DYLNeWGSRF) [SEQ ID NO: 30] | CTL lines were established | potent and specific CTL activities | potent IFN-gamma production |  |  |  | Specific CTL activity against COS7 transfected with both CDH3 and HLA-A24 [4]: highest specific CTL activity; also recorded: high specific CTL activity
2 | SEQ ID NO: 133: HLA-A*2402 binding 10-mer peptide derived from INHBB (LYLKLLPYVL) | CTL lines were established |  | potent IFN-gamma production |  |  |  | Specific CTL activity against 293T transfected with both INHBB and HLA-A24 ([5]; listed as INHBB-A24-10-180): highest specific CTL activity; also recorded: high specific CTL activity
3 | SEQ ID NO: 135: HLA-A*2402 binding 10-mer peptide derived from INHBB (RQQFFIDFRL) | CTL lines were established | potent and specific CTL activities | potent IFN-gamma production |  |  |  | Specific CTL activity against 293T transfected with both INHBB and HLA-A24 ([5]; listed as INHBB-A24-10-305): highest specific CTL activity; also recorded: high specific CTL activity
4 | SEQ ID NO: 137: HLA-A*2402 binding 10-mer peptide derived from INHBB (RALGAACLLL) | CTL lines were established |  | potent IFN-gamma production |  |  |  | Specific CTL activity against 293T transfected with both INHBB and HLA-A24 ([5]; listed as INHBB-A24-10-7): highest specific CTL activity
5 | SEQ ID NO: 227: HLA-A*0201 binding 9-mer peptide derived from TTK (YMSCFRTPV) |  |  |  | potent and specific CTL activities | specific response | potent IFN-gamma production | Specific CTL activity against COS7 transfected with both TTK and HLA-A02 ([7]; listed as TTK-A02-9-462): high specific CTL activity; Specific CTL activity against COS7 transfected with both TTK and HLA-A02 ([7]; listed as TTK-A2-9-462): highest specific CTL activity
6 | SEQ ID NO: 228: HLA-A*0201 binding 9-mer peptide derived from TTK (KQIYAIKYV) |  |  |  | potent and specific CTL activities | CTL line and clones were established | potent IFN-gamma production | Specific CTL activity against COS7 transfected with both TTK and HLA-A02 ([7]; listed as TTK-A02-9-547): highest specific CTL activity
7 | SEQ ID NO: 233: HLA-A*0201 binding 9-mer peptide derived from TTK (SLGCILYYM) |  |  |  | potent and specific CTL activities | CTL line and clones were established | potent IFN-gamma production | Specific CTL activity against COS7 transfected with both TTK and HLA-A02 ([7]; listed as TTK-A02-9-719): high specific CTL activity; Specific CTL activity against COS7 transfected with both TTK and HLA-A02 ([7]; listed as TTK-A2-9-719): highest specific CTL activity
8 | SEQ ID NO: 254: HLA-A*0201 binding 10-mer peptide derived from TTK (YMSCFRTPVV) |  |  |  | potent and specific CTL activities | CTL line and three clones were established | potent IFN-gamma production | Specific CTL activity against COS7 transfected with both TTK and HLA-A02 ([7]; listed as TTK-A02-10-462): specific CTL activity; Specific CTL activity against COS7 transfected with both TTK and HLA-A02 ([7]; listed as TTK-A2-10-462): highest specific CTL activity
9 | YLLGVVLTL [SEQ ID NO: 387] | CTL lines were established | potent and specific CTL activities | potent IFN-gamma production |  |  |  | 
